Measurements taken from US20080210128A1, “Optical Layer including mu-oxo-bridged boron-subphthalocyanine dimer” (ORIENT CHEMICAL INDUSTRIES, LTD., priority 2007, published 2008).
≈ marks a conversion by molar mass, not a printed value. Like-named read-outs stand apart in the source and are kept apart here.

Tests used:
[1] = Absorption spectrum in chloroform (spectral photometer UV-1700); type: physicochemical
[2] = Solubility in methyl ethyl ketone
Text: Incidentally, a spectral photometer of UV-1700 available from Shimadzu Corporation was used.

[3] = Dissolution of colorant on preparing the coating agent; type: physicochemical; settings: 0.5 parts by weight colorant in methyl ethyl ketone / cyclohexanone with polymethacrylate
Description: 0.1 parts by weight of the Compound obtained in the Manufacturing Example 1 and 15 parts by weigh of polymethacrylate were mixed and dissolved into 50 parts by weight of methyl ethyl ketone and 35 parts by weight of cyclohexanone by stirring, and liquid coating agent was prepared.
In Comparative Example 2, a thin layer was prepared by the same procedures as Example 1 except for using a coating agent prepared by using Intermediate Compound A-1 obtained in Manufacturing Example 1 instead of using Compound 1 used in Example 1. Incidentally, the additive amount of colorant to prepare a coating agent was changed to 0.5 parts by weight. […] Therefore, a coating agent was obtained as dispersion.

| Compound | maximum absorption wavelength [1] | molar absorption coefficient [1] | Solubility ([2]; solvent: methyl ethyl ketone) | Solubility [2] | dissolution in coating agent [3] |
| --- | --- | --- | --- | --- | --- |
| c1ccc2c(c1)C1=Nc3c4ccccc4c4n3[B-]3(O[B-]56n7c8c9ccccc9c7N=c7c9ccccc9c(n75)=NC5=[N+]6C(=N8)c6ccccc65)n5c(c6ccccc6c5=N4)=NC2=[N+]13 (stereo not drawn) [Compound 1, (SubPcB)2O] | 532 nm | 106000 dm^3mol^−1cm^−1 | 1.14 mg/mL (≈ 1410 µM) |  |  |
| ClB1n2c3c4ccccc4c2N=c2c4ccccc4c(n21)=NC1=NC(=N3)c2ccccc21 [Intermediate Compound A-1, SubPcBCl, reference compound] | 565 nm | 51000 dm^3mol^−1cm^−1 |  | 0.025 mg/mL (≈ 58 µM) | did not dissolve completely |
| (t-Bu3SubPcB)2O [Compound 2] | 543 nm | 61000 dm^3mol^−1cm^−1 | 58.5 mg/mL |  |  |
| SubPcBOH [Intermediate Compound B-1, reference compound] | 562 nm | 45000 dm^3mol^−1cm^−1 |  |  |  |
| {(C8H17O)3SubPcB}2O [Compound 3] | 543 nm | 87000 dm^3mol^−1cm^−1 |  | 83.2 mg/mL |  |
